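How tested: cells in 96-well plates exposed to compound for 48 hours at five concentrations. Abbreviation: GI50, concentration required for 50% inhibition of growth.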 Calls of active or inactive are those of the source. Rule as the data show it: active = GI50 up to about 1.1 µM and inactive = higher.
Key:
Test in all cases: inhibition of tumour cell growth, NCI panel, 48 h
[1] = tested on: CCRF-CEM
[2] = tested on: NCI-H460
[3] = tested on: MOLT-4
[4] = tested on: SK-MEL-28
[5] = tested on: ACHN
[6] = tested on: M14
[7] = tested on: 786-0
[8] = tested on: SF-295
[9] = tested on: RXF 393
[10] = tested on: HL-60
[11] = tested on: SK-OV-3
[12] = tested on: NCI-H23
[13] = tested on: HCT-116
[14] = tested on: COLO 205
[15] = tested on: HCT-15
[16] = tested on: OVCAR-4
[17] = tested on: LOX IMVI
[18] = tested on: SN12C
[19] = tested on: TK-10
[20] = tested on: SK-MEL-2

SMILES	GI50 [1]	GI50 [2]	GI50 [3]	GI50 [4]	GI50 [5]	GI50 [6]	GI50 [7]	GI50 [8]	GI50 [9]	GI50 [10]	GI50 [11]	GI50 [12]	GI50 [13]	GI50 [14]	GI50 [15] [µM]	GI50 [16]	GI50 [17]	GI50 [18]	GI50 [19]	GI50 [20]
O=Cc1cc(O)ccc1Br	3.08 µM (inactive)	19.7 µM (inactive)	4.15 µM (inactive)	15 µM (inactive)	19.8 µM (inactive)	5.45 µM (inactive)	22.6 µM (inactive)	7 µM (inactive)	27.4 µM (inactive)	1.88 µM (inactive)	34.7 µM (inactive)	21.7 µM (inactive)	3.31 µM (inactive)	41.7 µM (inactive)	3.15	15 µM (inactive)	5.46 µM (inactive)	19.8 µM (inactive)	11.3 µM (inactive)	44.4 µM (inactive)
Nn1c(S)nnc1COc1cccc(OCc2nnc(S)n2N)c1	30.7 µM (inactive)	29.7 µM (inactive)	3.13 µM (inactive)	> 100 µM (inactive)	> 100 µM (inactive)	> 100 µM (inactive)	34.3 µM (inactive)	> 100 µM (inactive)	> 100 µM (inactive)	86.3 µM (inactive)	> 100 µM (inactive)	> 100 µM (inactive)	> 100 µM (inactive)	98.4 µM (inactive)	58.7	> 100 µM (inactive)	32.4 µM (inactive)	> 100 µM (inactive)	> 100 µM (inactive)	> 100 µM (inactive)
CC1(C)[C@H](C(=O)O)N2C(=O)[C@@H](NS(=O)(=O)c3ccc([N+](=O)[O-])cc3)[C@H]2S1(=O)=O	> 100 µM (inactive)	> 100 µM (inactive)	> 100 µM (inactive)	> 100 µM (inactive)	> 100 µM (inactive)	> 100 µM (inactive)	> 100 µM (inactive)	> 100 µM (inactive)	> 100 µM (inactive)	> 100 µM (inactive)	> 100 µM (inactive)	> 100 µM (inactive)	> 100 µM (inactive)	> 100 µM (inactive)	> 100	> 100 µM (inactive)	> 100 µM (inactive)	> 100 µM (inactive)	> 100 µM (inactive)	> 100 µM (inactive)
CCCCCCCCCCC(C)CCCCCCC(=O)OCC(COP(=O)([O-])OCC[N+](C)(C)C)OC(=O)CCCCCCC(C)CCCCCCCCCC (stereo not given)	> 100 µM (inactive)	> 100 µM (inactive)	> 100 µM (inactive)	> 100 µM (inactive)	> 100 µM (inactive)	> 100 µM (inactive)	> 100 µM (inactive)	> 100 µM (inactive)	> 100 µM (inactive)	> 100 µM (inactive)	> 100 µM (inactive)	> 100 µM (inactive)	> 100 µM (inactive)	> 100 µM (inactive)	> 100	> 100 µM (inactive)	> 100 µM (inactive)	> 100 µM (inactive)	> 100 µM (inactive)	> 100 µM (inactive)
COc1ccc2nc3cc(Cl)ccc3c(NCCCCCC(=O)NC(COc3ccc4ccc5cccnc5c4n3)COc3ccc4ccc5cccnc5c4n3)c2c1	2.28 µM (inactive)	2.85 µM (inactive)	0.527 µM (active)	24.2 µM (inactive)	15.5 µM (inactive)	26.7 µM (inactive)	15.4 µM (inactive)	29.8 µM (inactive)	19.8 µM (inactive)	9.64 µM (inactive)	36.9 µM (inactive)	21.4 µM (inactive)	8.24 µM (inactive)	18.3 µM (inactive)	35.3	30 µM (inactive)	21.4 µM (inactive)	17.8 µM (inactive)	18.1 µM (inactive)	25.3 µM (inactive)
COc1ccc2c(c1)[n+]([O-])c(C(C)=O)c(C)[n+]2[O-]	> 10 µM (inactive)	> 100 µM (inactive)	> 100 µM (inactive)	> 100 µM (inactive)	> 100 µM (inactive)	> 100 µM (inactive)	> 100 µM (inactive)	> 100 µM (inactive)	> 100 µM (inactive)	> 100 µM (inactive)	> 100 µM (inactive)	> 100 µM (inactive)	> 100 µM (inactive)	> 100 µM (inactive)	> 100	> 100 µM (inactive)	> 100 µM (inactive)	> 100 µM (inactive)	> 100 µM (inactive)	> 100 µM (inactive)
CC/N=C(\N)CSS(=O)(=O)O	> 100 µM (inactive)	77.3 µM (inactive)	34.6 µM (inactive)	> 100 µM (inactive)	> 100 µM (inactive)	> 100 µM (inactive)	> 100 µM (inactive)	> 100 µM (inactive)	> 100 µM (inactive)	> 100 µM (inactive)	> 100 µM (inactive)	> 100 µM (inactive)	> 100 µM (inactive)	> 100 µM (inactive)	> 100	> 100 µM (inactive)	38.3 µM (inactive)	> 100 µM (inactive)	> 100 µM (inactive)	> 100 µM (inactive)
OC1(CCc2ccccc2)COC(C(F)(F)F)(C(F)(F)F)C1 (stereo not given)	> 100 µM (inactive)	> 100 µM (inactive)	> 100 µM (inactive)	> 100 µM (inactive)	> 100 µM (inactive)	> 100 µM (inactive)	> 100 µM (inactive)	> 100 µM (inactive)	> 100 µM (inactive)	> 100 µM (inactive)	> 100 µM (inactive)	> 100 µM (inactive)	> 100 µM (inactive)	> 100 µM (inactive)	> 100	> 100 µM (inactive)	> 100 µM (inactive)	> 100 µM (inactive)	> 100 µM (inactive)	> 100 µM (inactive)
O=C(CCCN1CCC(C(O)c2ccc(F)cc2)CC1)c1ccc(F)cc1 (stereo not given)	76.2 µM (inactive)	57.8 µM (inactive)	54.3 µM (inactive)	59.3 µM (inactive)	50.6 µM (inactive)	51.6 µM (inactive)	44.9 µM (inactive)	63.5 µM (inactive)	41.1 µM (inactive)	35.9 µM (inactive)	69.8 µM (inactive)	66.5 µM (inactive)	57 µM (inactive)	55.7 µM (inactive)	62.2	61 µM (inactive)	50 µM (inactive)	71.9 µM (inactive)	41.4 µM (inactive)	57.4 µM (inactive)
COc1ccc(Nc2nc(N)c(C(=O)c3c[nH]c4ccccc34)s2)cc1	2.16 µM (inactive)	0.942 µM (active)	0.478 µM (active)	14.9 µM (inactive)	5.12 µM (inactive)	1.23 µM (inactive)	2.15 µM (inactive)	0.5 µM (active)	2.03 µM (inactive)	1.07 µM (active)	4.51 µM (inactive)	3.4 µM (inactive)	0.92 µM (active)	0.731 µM (active)	0.433	5.42 µM (inactive)	2.01 µM (inactive)	3.61 µM (inactive)	5.56 µM (inactive)	3.98 µM (inactive)
COc1ccc2c(Cc3c4ccccc4cc4ccccc34)cncc2c1O	0.36 µM (active)	1.45 µM (inactive)	2.68 µM (inactive)	14.1 µM (inactive)	2.14 µM (inactive)	2.26 µM (inactive)	4.21 µM (inactive)	1.55 µM (inactive)	3.4 µM (inactive)	1.87 µM (inactive)	2.96 µM (inactive)	2.37 µM (inactive)	1.48 µM (inactive)	17.7 µM (inactive)	1.15	5.37 µM (inactive)	0.394 µM (active)	5.01 µM (inactive)	3.94 µM (inactive)	2.87 µM (inactive)
CSC1(C)C(=O)Nc2c(OCc3ccccc3)cc([N+](=O)[O-])cc21 (stereo not given)	84.3 µM (inactive)	> 100 µM (inactive)	83.6 µM (inactive)	75.3 µM (inactive)	> 100 µM (inactive)	29.8 µM (inactive)	12.9 µM (inactive)	57.1 µM (inactive)	51.3 µM (inactive)	40.7 µM (inactive)	> 100 µM (inactive)	75.9 µM (inactive)	85.5 µM (inactive)	> 100 µM (inactive)	50.5	> 100 µM (inactive)	53 µM (inactive)	13.4 µM (inactive)	> 100 µM (inactive)	38.7 µM (inactive)
CC1(CO)OC(n2cnc3c(N)ncnc32)C(O)C1O (stereo not given)	> 100 µM (inactive)	> 100 µM (inactive)	> 100 µM (inactive)	> 100 µM (inactive)	> 100 µM (inactive)	> 100 µM (inactive)	> 100 µM (inactive)	> 100 µM (inactive)	> 100 µM (inactive)	> 100 µM (inactive)	> 100 µM (inactive)	> 100 µM (inactive)	> 100 µM (inactive)	> 100 µM (inactive)	> 100	> 100 µM (inactive)	> 100 µM (inactive)	> 100 µM (inactive)	> 100 µM (inactive)	> 100 µM (inactive)
CCN(CC)CCn1nc2c3c(c(NCCN)ccc31)Sc1cc(O)ccc1-2	0.166 µM (active)	0.0715 µM (active)	0.0396 µM (active)	1.38 µM (inactive)	0.579 µM (active)	0.455 µM (active)	0.741 µM (active)	0.861 µM (active)	1.14 µM (inactive)	0.0962 µM (active)	1.25 µM (inactive)	0.451 µM (active)	0.327 µM (active)	0.865 µM (active)	3.03	0.528 µM (active)	0.146 µM (active)	0.372 µM (active)	2.22 µM (inactive)	1.28 µM (inactive)

Source: ChEMBL document CHEMBL1201862, “PubChem BioAssay data set” (2004)
